US20140121236A1, “Compositions and Methods for Treating Myotonic Dystrophy Type 1” (UNIVERSITY OF SOUTHERN CALIFORNIA, priority 2012, published 2014)

Assays:
DM1 myoblasts [1] = test: Viability of DM1 myoblasts by counting surviving cells; type: cell-based, human; conditions: Table 1, 10 μM, 4 days, surviving cells vs vehicle control
DM1 myoblasts [2] = test: Toxicity by shape and size of the nuclei of DM1 myoblasts; type: cell-based, human; conditions: Table 1, 10 μM, 4 days
[3] = tested on: MBNL1 and MBNL2 RNA splicing in DM1 myoblasts; test: Splicing assay (RT-PCR) for RNAs from DM1 myoblasts; type: cell-based, human
Description: A. Total RNA was isolated from normal (SKMC) myoblasts, untreated DM1 myoblasts and DM1 myoblasts treated with 50 μM RCN-001 or 50 μM Pentamidine for 17 hours and subjected to RT-PCR analysis using the indicated primers sets for MBNL1 and MBNL2 RNAs. GAPDH RNA was amplified in parallel as an internal control. The results of one of three experiments are shown. B. The relative levels of exon inclusion was measured by densitometry and tabulated as mean % exon inclusion +/− standard deviation.
Treatment of DM1 myoblasts with RCN-001 is also sufficient to rescue abnormal RNA splicing. Two RNAs were selected that show abnormal splicing in DM1 myoblasts: MBNL1 and MBNL2. DM1 myoblast were treated with 50 μM RCN-001 for 17 hours after which RNA was isolated and splice variants were analyzed as previously described (20-22).
Splicing assays for RNAs isolated from human myoblasts. DM1 patient myoblasts was treated with 50 μM of RCN-001 or Pentamidine for 17 h as described by Warf et al, 2009. Total RNA was isolated using the RNAeasy mini kit (Qiagen Inc., USA) following manufacture's protocol. cDNA was synthesized using 5 μg of total RNA using First-Strand cDNA synthesis kit (GE Healthcare). PCR amplification was carried out using 150 ng of cDNA for 35 cycles for each target RNA. The primers used for PCR amplification are as follows—
The relative band intensities were measured using densitometry analyses and the percent of exon inclusion was calculated as [exon inclusion/(exon inclusion+exon exclusion)]×100.

[4] = tested on: Clcn1, lbd3 and Serca-1 RNA splicing in HSALR mice; test: RT-PCR splicing analysis of skeletal muscle RNA of treated HSALR mice; type: in vivo; conditions: 40 mg/kg i.p. each day for 7 days
Description: A. Total RNA was isolated from age and gender matched wild-type mice, HSA^LR mice and HSA^LR mice treated with either saline or 40 mgs/kg of RCN-001 injected i.p. once a day for 7 days. Subsequent to treatment RNA was isolated from skeletal muscles and subjected to RT-PCR analysis using the indicated primers sets for Clcn1, Lbd3 and Serca-1 RNAs. GAPDH RNA was amplified in parallel as an internal control. The results of two experiments are shown. B. Bar graph representation of rescue achieved is shown. C. The relative levels of exon inclusion was measured by densitometry and tabulated as mean % exon inclusion +/− standard deviation.
(§1) Furthermore, CUG foci, abnormal RNA splicing, myotonia and reduced Clcn1 protein levels are reversed in HSA^LR mice treated with RCN-001: Age and gender matched HSA^LR mice were treated with either vehicle or 40/mgs/kg of RCN-001 injected i.p. each day for 7 days. After treatment CUG foci were examined and RNA isolated from skeletal muscle was subjected to RT-PCR analysis to examine the efficacy of RCN-001 in correcting the splice defects of Clcn1, lbd3 and Serca-1 RNAs, which are abnormally spliced in DM1 (20).
Treatment in HSALR mice. […]
The relative band intensities were quantified by densitometry analyses and the percent of exon inclusion was calculated as [exon inclusion/(exon inclusion+exon exclusion)]×100.

SHARP = test: Nuclear SHARP levels in treated HSALR mice; type: in vivo; conditions: 40 mg/kg i.p. each day for 7 days (not shown)
Description: as §1
(§2) CUG-RNA foci were detected by performing FISH on untreated DM1 myoblasts and DM1 myoblasts following treatment. For FISH analysis, DM1 myoblasts were plated on a 24-well clear bottom polystyrene plate with circular glass coverslips followed by treatment. Prior to FISH analysis, cells were fixed using 4% paraformaldehyde in 1×PBS for 20 min at room temperature. FISH analysis was performed using a Cy3 conjugated (CAG)10 oligonucleotide probe (Integrated DNA Technologies, Inc.) as described by Taneja et al, 1995 and Dansithong et al, 2005. CUG-RNA foci were observed as a red signal using fluorescence microscopy. […] Endogenous SHARP was detected using SHARP polyclonal antibodies from Bethyl at a dilution of 1:1000. […] Chloride channel 1 (Clcn1 a.k.a. CIC-1) was detected using CIC-1 polyclonal antibodies from Santa Cruz. […]

Clcn1 = test: Anti-Clcn1 staining of gastrocnemius muscle sections of HSALR mice; type: in vivo; conditions: 14 days treatment
Description: For all animals the recording electrode was inserted into the test muscle 20 times. The number of myotonic runs ≧1 second in the gastrocnemius muscle of individual HSA^LR mice treated with either the saline control or RCN-001 are shown.
Importantly, RCN-001 reduces the number of myotonic runs of ≧1 second (p<0.05) (FIG. 5), total time of myotonic runs ≧1 sec (4.04 s±2.9 vehicle; 0.99 s±1.4 RCN-001; p<0.05) and length of the longest run (1.96 s±0.97 vehicle; 0.73 s±0.71 RCN-001; p<0.05) in the gastrocnemius muscle of HSA^LR mice. […] Methods are detailed in the legend of FIG. 5.
as §2

wild-type and HSALR mice = test: Off-target splicing and RNA steady-state levels in mice; type: in vivo
Description: Results for wild-type and HSA^LR mice are not shown.

[5] = tested on: CUG-RNA foci in DM1 myoblasts; test: FISH analysis of nuclear CUG-RNA foci in DM1 myoblasts; type: cell-based, human; conditions: 2 μM, 4 days (not shown)

CCCCCCc1cc2cc(-c3nnc(-c4cccc(OC)c4)o3)c(=O)oc2cc1O [RCN-001]
Toxicity: Viable (DM1 myoblasts [1]): ++ (30-40% cell survival)
Toxicity: Toxic (DM1 myoblasts [2]): ++++ (60% alterations in nuclei shape and size)
rescue of abnormal splicing of MBNL1 and MBNL2 ([3]; 50 μM, 17 hours, RT-PCR): significantly rescues abnormal splicing of MBNL1 and MBNL2
rescue of aberrant splicing of MBNL1, MBNL2, and IR in DM1 myoblasts ([3]; FIG. 6B, semi-quantitative RT-PCR): rescues aberrant splicing
rescue of splice defects of Clcn1, lbd3 and Serca-1 RNAs [4]: achieved rescue of splice defects that was comparable to results obtained with AON
nuclear SHARP levels (SHARP): allowed nuclear SHARP levels to be re-established
chloride channel (Clcn1) levels (Clcn1): re-establish normal chloride channel levels
off target effects on steady-state levels of endogenous (CUG)6-25 repeat encoding RNAs (wild-type and HSALR mice; wild-type and HSALR mice (not shown)): does not show significant off target effects
splice patterns of RNAs that are abnormally spliced in DM1 (wild-type and HSALR mice; wild-type mice (not shown)): does not alter splice patterns
splice patterns of RNAs that are normally spliced in DM1 (wild-type and HSALR mice; wild-type or HSALR mice (not shown)): does not alter splice patterns
decrease in cells containing 3 or more foci [5]: 2 fold
increase in cells containing no foci [5]: 5 fold
